Counter-ions that a name gives are not always drawn. Like-named read-outs stand apart in the source and are kept apart here.
How the values were obtained:
[1] = tested on: effects of serotonin in the gastric lesion test; conditions: rats injected with compound 48/80; known serotonin-antagonists; cited from earlier work
[2] = tested on: effects of serotonin in the gastric lesion test; test: Antagonistic activity on the effects of serotonin in the gastric lesion test (lesions induced by compound 48/80); format: in vivo, rat (male, Wistar inbred strain)
Excerpt: The compounds of formula (I) and the pharmaceutically acceptable acid addition salts thereof are also potent serotonin-antagonists. The potency of the subject compounds as serotonin-antagonists is clearly evidenced by the results obtained in the following tests wherein the antagonistic activity of the subject compounds on the effect of serotonin is examined.
Antagonistic activity on the effects of serotonin in the gastric lesion test.
The shock, followed by dead, can be avoided if the rats are pretreated with a classical H 1 antagonist.
Male rats of a Wistar inbred strain, weighing 220-250 g, were starved overnight, water being available ad libitum. The test compounds were administered orally as a solution or as a suspension in aqueous medium. A control rat and a "blank" rat received the test compound. One hour later 5-[4-(diphenylmethyl)-1-piperazinylmethyl]-1-methyl-1H-benzimidazole-2-methanol was administered subcutaneously to all rats at the dose of 2.5 mg/kg.
Four hours after the intravenous injection of compound 48/80, the rats were decapitated and the stomachs were removed. Subsequently the stomachs were inspected for distension and contents (blood, fluid, food) and thoroughly rinsed. The macroscopic lesions were scored from 0 to +++, 0 corresponding to the complete absence of visible lesions and the highest score corresponding to reddish rough patches covering more than half the glandular area.

[3] = tested on: compound 48/80-induced lethality; test: Protection of rats from compound 48/80-induced lethality; format: in vivo, rat (male, inbred Wistar strain); conditions: subcutaneous or oral, 1 h before compound 48/80 0.5 mg/kg i.v., survival after 4 h; for ED50: Rattus norvegicus, 4 h, read-out: compound 48/80 lethality test in rats-ED50, dose protecting 50% of animals
Method: Protection of rats from compound 48/80-induced lethality.
The protection from compound 48/80-induced lethal circulatory collapse appears to be a simple way of evaluating quantitatively the antihistaminic activity of test compounds. Male rats of an inbred Wistar strain, weighing 240-260 g were used in the experiment. After overnight starvation the rats were transferred to conditioned laboratories (temp.=21±1° C., relative humidity=65±5%).
The rats were treated subcutaneously or orally with a test compound or with the solvent (NaCl solution, 0.9%). […] Survival after 4 hours is therefore considered to be a safe criterion of a protective effect of drug administration.
The ED50 -values of the compounds of formula (I) are listed in the first column of table 1. Said ED50 -values are the values in mg/kg body weight at which the tested compounds protect 50% of the tested animals against compound 48/80-induced lethality.

[4] = Rattus norvegicus; read-out: gastric lesion test ED50
[5] = Rattus norvegicus, read-out: gastric lesion test ED50

SMILES | ED50 [2, 4] [mg/kg] | ED50 [3] [mg/kg] | also measured
CN1CCC(=C2c3ccccc3C=Cc3ccccc32)CC1 [cyproheptadine] | – | – | prevention of cyanosis of ears and extremities, lesions in the glandular area of the stomach and abnormal gastric distension [1]: prevent completely
CN1CCN2c3ccccc3Cc3ccccc3C2C1 (stereo not shown) [mianserin] | – | – | prevention of cyanosis of ears and extremities, lesions in the glandular area of the stomach and abnormal gastric distension [1]: prevent completely
CN1CCC(=C2c3ccccc3CCc3sccc32)CC1 [pizotifen] | – | – | prevention of cyanosis of ears and extremities, lesions in the glandular area of the stomach and abnormal gastric distension [1]: prevent completely
CNC(=O)N(CCN1CCC(Nc2nc3ccccc3n2Cc2ccc(F)cc2)CC1)c1nccs1 [Compound 103, N-[2-[4-[[1-[(4-fluorophenyl)methyl]-1H-benzimidazol-2-yl]amino]-1-piperidinyl]ethyl]-N'-methyl-N-(2-thiazolyl)urea] | 0.63 | 0.08 | –
Fc1ccc(Cn2c(NC3CCN(CCOc4nccs4)CC3)nc3ccccc32)cc1 [Compound 72, 1-[(4-fluorophenyl)methyl]-N-[1-[2-(2-thiazolyloxy)ethyl]-4-piperidinyl]-1H-benzimidazol-2-amine] | 0.63 | 0.08 | –
Cc1ccccc1Cn1c(NC2CCN(CCNc3nccs3)CC2)nc2ccccc21 [Compound 29] | 0.63 | 0.63 | –
Cc1nnc(NCCN2CCC(Nc3nc4ccccc4n3Cc3ccc(F)cc3)CC2)s1 [Compound 15, 1-[(4-fluorophenyl)methyl]-N-[1-[2-[(5-methyl-1,3,4-thiadiazol-2-yl)amino]ethyl]-4-piperidinyl]-1H-benzimidazol-2-amine] | 0.31 | 0.04 | –
CN(C)CCCSc1ccccc1NC(=O)/C=C/c1ccccc1 [cinanserin] | – | – | prevention of cyanosis of ears and extremities, lesions in the glandular area of the stomach and abnormal gastric distension [1]: prevent completely
NC(=O)C1(N2CCCCC2)CCN(CCCC(=O)c2ccc(F)cc2)CC1 [pipamperone] | – | – | prevention of cyanosis of ears and extremities, lesions in the glandular area of the stomach and abnormal gastric distension [1]: prevent completely
Clc1ccc(Cn2c(NC3CCN(CCNc4nccs4)CC3)nc3ccccc32)cc1 [Compound 25] | 0.63 | 0.31 | –
Fc1ccc(Cn2c(NC3CCN(CCNc4nccs4)CC3)nc3cccnc32)cc1 [Compound 17] | 0.16 | 0.02 | –
c1csc(Cn2c(NC3CCN(CCNc4nccs4)CC3)nc3ccccc32)c1 [Compound 28] | 0.02 | 0.08 | –
c1coc(Cn2c(NC3CCN(CCNc4nccs4)CC3)nc3ccccc32)c1 [Compound 48, 1-(2-furanylmethyl)-N-[1-[2-(2-thiazolylamino)ethyl]-4-piperidinyl]-1H-benzimidazol-2-amine] | 0.63 | 0.08 | –
O=C(CCCN1CCC2(CC1)C(=O)NCN2c1ccccc1)c1ccc(F)cc1 [spiperone] | – | – | prevention of cyanosis of ears and extremities, lesions in the glandular area of the stomach and abnormal gastric distension [1]: prevent completely
O=C(c1ccccc1)N(CCN1CCC(Nc2nc3ccccc3n2Cc2ccc(F)cc2)CC1)c1nccs1 [Compound 100, N-[2-[4-[[1-[(4-fluorophenyl)methyl]-1H-benzimidazol-2-yl]amino]-1-piperidinyl]ethyl]-N-(2-thiazolyl)benzamide] | 0.63 | 0.31 | –
Fc1ccc(Cn2c(NC3CCN(CCNc4nccs4)CC3)nc3ccccc32)cc1 [Compound 58] | – | – | ED50 [2, 5]: 0.04 mg/kg; compound 48/80 lethality test in rats-ED50 ([3]; dose protecting 50% of animals, 0.5 mg/kg, 240 min): 0.02 mg/kg body weight
Nc1nnc(NCCN2CCC(Nc3nc4ccccc4n3Cc3ccc(F)cc3)CC2)s1 [Compound 18] | – | 0.02 | ED50 [2, 5]: 0.04 mg/kg
c1ccc2c(c1)nc(NC1CCN(CCNc3nccs3)CC1)n2Cc1cscn1 [Compound 49, N-[1-[2-(2-thiazolylamino)ethyl]-4-piperidinyl]-1-(4-thiazolylmethyl)-1H-benzimidazol-2-amine ethanedioate (2:5)] | 0.63 | 0.04 | –
Cn1ccnc1SCCN1CCC(Nc2nc3ccccc3n2Cc2ccc(F)cc2)CC1 [Compound 75, 1-[(4-fluorophenyl)methyl]-N-[1-[2-[(1-methyl-1H-imidazol-2-yl)thio]ethyl]-4-piperidinyl]-1H-benzimidazol-2-amine] | – | 0.08 | ED50 [2, 5]: 0.08 mg/kg
Fc1ccccc1Cn1c(NC2CCN(CCNc3nccs3)CC2)nc2ccccc21 [Compound 31] | 0.63 | 0.08 | –
Cc1sc(N)nc1CCN1CCC(Nc2nc3ccccc3n2Cc2ccc(F)cc2)CC1 [Compound 94, N-[1-[2-(2-amino-5-methyl-4-thiazolyl)ethyl]-4-piperidinyl]-1-[(4-fluorophenyl)methyl]-1H-benzimidazol-2-amine] | – | 0.08 | ED50 [2, 5]: 0.08 mg/kg
Cc1coc(NCCN2CCC(Nc3nc4ccccc4n3Cc3ccc(F)cc3)CC2)n1 [Compound 84, 1-[(4-fluorophenyl)methyl]-N-[1-[2-[(4-methyl-2-oxazolyl)amino]ethyl]-4-piperidinyl]-1H-benzimidazol-2-amine] | 0.63 | 0.16 | –
CC(C)n1ccnc1NCCN1CCC(Nc2nc3ccccc3n2Cc2ccc(F)cc2)CC1.O [Compound 81, 1-[(4-fluorophenyl)methyl]-N-[1-[2-[[1-(1-methylethyl)-1H-imidazol-2-yl]amino]-ethyl]-4-piperidinyl]-1H-benzimidazol-2-amine mono hydrate] | 0.31 | 0.04 | –
CN1C[C@H](CNC(=O)OCc2ccccc2)C[C@@H]2c3cccc4c3c(cn4C)C[C@H]21 [metergoline] | – | – | prevention of cyanosis of ears and extremities, lesions in the glandular area of the stomach and abnormal gastric distension [1]: prevent completely
CC(=O)N(CCN1CCC(Nc2nc3ccccc3n2Cc2ccc(F)cc2)CC1)c1nccs1 [Compound 102, N-[2-[4-[[1-[(4-fluorophenyl)methyl]-1H-benzimidazol-2-yl]-amino]-1-piperidinyl]ethyl]-N-(2-thiazolyl)acetamide] | 1.25 | 0.16 | –
Fc1ccc(Cn2c(NC3CCN(CCCCCNc4nccs4)CC3)nc3ccccc32)cc1 [Compound 21] | 0.31 | 0.16 | –
CNc1nc(CCN2CCC(Nc3nc4ccccc4n3Cc3ccc(F)cc3)CC2)cs1 [Compound 98, 1-[(4-fluorophenyl)methyl]-N-[1-[2-[2-(methylamino)-4-thiazolyl]-ethyl]-4-piperidinyl]-1H-benzimidazol-2-amine] | 0.16 | 0.16 | –
N=C(N)Nc1nc(CCN2CCC(Nc3nc4ccccc4n3Cc3ccc(F)cc3)CC2)cs1 [Compound 90, N-[4-[2-[4-[[1-[(4-fluorophenyl)methyl]-1H-benzimidazol-2-yl]amino]-1-piperidinyl]ethyl-2-thiazolyl]guanidinetrihydrobromide] | 0.31 | 0.04 | –
Cc1nc[nH]c1CN1CCC(Nc2nc3ccccc3n2Cc2ccc(F)cc2)CC1 [Compound 7, 1-(4-fluorophenylmethyl)-N-[1-[(4-methyl-1H-imidazol-5-yl)methyl]-4-piperidinyl]-1H-benzimidazol-2-amine] | 0.31 | 0.02 | –
CC[C@@H](CO)NC(=O)[C@@H]1C=C2c3cccc4c3c(cn4C)C[C@H]2N(C)C1 [methysergide] | – | – | prevention of cyanosis of ears and extremities, lesions in the glandular area of the stomach and abnormal gastric distension [1]: prevent completely

Source: patent US4634704A, “Anti-allergic five membered heterocyclic ring containing N-(bicyclic heterocycyl)-4-piperidinamines” (Janssen Pharmaceutica, N.V., priority 1984, dated 1987)
